The values that follow come from publication PMC8129716 (CPT: Pharmacometrics & Systems Pharmacology, 2021).

The structures appear in SMILES notation.

In series [1] the test system is CYP3A. The conditions noted are these: cited from earlier work.
Series [2] has as its system CYP3A. The conditions noted are these: co-administration of itraconazole; cited from earlier work.
In series [3] the test system is CYP3A. Nature of the series: PBPK simulation of zanubrutinib as perpetrator, midazolam. Set-up: species or system human.
In series [4] the test system is CYP3A. The following applies: midazolam 2 mg with/without zanubrutinib 160 mg b.i.d.; cited from earlier work.
In series [5] the test system is CYP2C19. Put plainly: PBPK simulation of zanubrutinib as perpetrator, omeprazole. Further details: species or system human.
The test system of series [6] is CYP2C19. The following applies: omeprazole 20 mg with/without zanubrutinib; cited from earlier work.
Series [7] has as its system CYP2C9. Nature of the series: PBPK simulation of zanubrutinib as perpetrator, warfarin. Set-up: species or system human.
Series [8] concerns CYP2C9. The following applies: warfarin 10 mg with/without zanubrutinib; cited from earlier work.

In the case of `NC(=O)N1c2ccccc2C=Cc2ccccc21` [Carbamazepine], the “simulated ribociclib AUC ratio (with/without inducer)” value in the series on CYP3A [1] was 0.48.
Take `O=C1Nc2ccc(Cl)cc2[C@@](C#CC2CC2)(C(F)(F)F)O1` [Efavirenz]: the “simulated ribociclib AUC ratio (with/without inducer)” value in the series with CYP3A [1] was 0.40.
Take `CCC(C)n1ncn(-c2ccc(N3CCN(c4ccc(OCC5COC(Cn6cncn6)(c6ccc(Cl)cc6Cl)O5)cc4)CC3)cc2)c1=O` (stereo not drawn) [itraconazole]: in the series with CYP3A [2], the “increase of zanubrutinib AUC0-t” value is listed as 3.9 fold and the “increase of zanubrutinib Cmax” value is given as 2.6 fold.
With `Cc1ncc2n1-c1ccc(Cl)cc1C(c1ccccc1F)=NC2` [midazolam, reference compound], the “midazolam AUC ratio observed/predicted” value in the series with CYP3A [3] was 1.02. For the same molecule, in the series with CYP3A [4], the “midazolam AUC ratio, observed (90% CI)” value was 0.53 (0.48–0.57) and the “midazolam Cmax ratio, observed (90% CI)” value was 0.70 (0.63–0.78).
As for `COc1ccc2[nH]c([S+]([O-])Cc3ncc(C)c(OC)c3C)nc2c1` (stereo not drawn) [omeprazole], in the series with CYP2C19 [5], the “omeprazole AUC ratio observed/predicted” value is 0.67 and the “omeprazole Cmax ratio observed/predicted” value is listed as 0.81. Further, in the series with CYP2C19 [6], the “omeprazole AUC ratio, observed (90% CI)” value is on record as 0.63 (0.5–0.70) and the “omeprazole Cmax ratio, observed (90% CI)” value is given as 0.79 (0.65–0.97).
In the case of `CC(=O)CC(c1ccccc1)c1c(O)c2ccccc2oc1=O` (stereo not drawn) [warfarin], in the series with CYP2C9 [7], the “warfarin AUC ratio observed/predicted” value is given as 1.03 and the “warfarin Cmax ratio observed/predicted” value is on record as 0.95. Further, in the series with CYP2C9 [8], the “warfarin AUC ratio, observed (90% CI)” value was 1.00 (0.98–1.03) and the “warfarin Cmax ratio, observed (90% CI)” value was 0.95 (0.87–1.04).
